What all share (assay): NCI-60 cell line screen, 48 h
For experiment [1], the system named is UO-31 renal.
Experiment [2] deals with HOP-62 NSCLC.
For experiment [3], the system named is T-47D breast.
Experiment [4] concerns UACC-257 melanoma.
Experiment [5] deals with HCT-116 colon.
For experiment [6], the system named is SNB-75 CNS.
Experiment [7] relates to MOLT-4 leukemia.
Experiment [8] has as its system MALME-3M melanoma.
Experiment [9] relates to OVCAR-3 ovarian.
Experiment [10] deals with HL-60(TB) leukemia.
For experiment [11], the system named is DU-145 prostate.
Experiment [12] concerns OVCAR-4 ovarian.
For experiment [13], the system named is OVCAR-8 ovarian.
Experiment [14] deals with LOX IMVI melanoma.
The subject of experiment [15] is OVCAR-5 ovarian.
In experiment [16] the test system is IGROV1 ovarian.
For experiment [17], the system named is HS 578T breast.

Where “and” joins values, the source holds several entries; their conditions need not be identical. Equal values may be shown once.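 96-well plates; 48 h exposure; 5 concentrations. Endpoints by linear interpolation between flanking doses. Not reached: highest tested concentration assigned. TGI: total growth inhibition.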

As for `CC1(c2nc3ccccc3[nH]2)CCC(C(N)=O)C(C)(C)O1` (stereo unspecified), the TGI in experiment [1], in experiment [2], in experiment [3], in [4], in experiment [5] and in [6] was greater than 100 µM throughout. The TGI in experiment [7], in [8], in experiment [9], in experiment [10], in experiment [11] and in experiment [12] was greater than 100 µM in each case. Moreover, the TGI in [13], in experiment [14], in experiment [15], in [16] and in experiment [17] was greater than 100 µM in each case.
`CCOC(=O)CCC(C(=O)OCC)n1nnc2ccc(Nc3c(C)[n+]([O-])c4cc(Cl)ccc4[n+]3[O-])cc21` (stereo unspecified): the TGI in experiment [1] was greater than 100 µM; in experiment [2], greater than 100 µM; in experiment [3] it was 44.3 µM; in experiment [4], 30.8 µM; in experiment [5], greater than 100 µM; in experiment [6], greater than 100 µM. The TGI in [7] is greater than 100 µM; in [8], 35.2 µM; in experiment [9], 34.4 µM; in experiment [10], 83.5 µM; in experiment [11], greater than 100 µM; in [12] it was 39.1 µM. Also, the TGI in experiment [13] is 55.5 µM; in experiment [14], 35.7 µM; in experiment [15], greater than 100 µM; in [16], 79 µM; in experiment [17], greater than 100 µM.
Consider `Cc1cc(S(=O)(=O)NC2=NC(c3ccccc3)c3ccccc3N2)c(S)cc1Cl` (stereo unspecified), for which the TGI was 46.5 µM in [1]; greater than 100 µM in experiment [2]; greater than 100 µM in [3]; greater than 100 µM in [4]; greater than 100 µM in experiment [5]; greater than 100 µM in [6]. In addition, the TGI in experiment [7], in [8], in experiment [9], in [10], in experiment [11] and in experiment [12] was greater than 100 µM in each case. For the same compound, the TGI in experiment [13], in [14], in experiment [15], in experiment [16] and in experiment [17] was greater than 100 µM in each case.
As to `COc1cc(S(=O)(=O)Nc2nc(-c3ccc(N)cc3)cs2)ccc1Cl`, the TGI in experiment [1], in experiment [2], in experiment [3], in experiment [4], in experiment [5] and in [6] was greater than 100 µM in each case. The TGI in experiment [7], in [8], in experiment [9], in experiment [10], in [11] and in [12] was greater than 100 µM in each case. For the same compound, the TGI in experiment [13], in experiment [14], in experiment [15], in experiment [16] and in experiment [17] was greater than 100 µM in each case.
With `CN(C)c1nc(=NCc2cccs2)ss1`, the TGI in [1], in experiment [2], in experiment [3], in [4], in experiment [5] and in experiment [6] was greater than 10 µM in each case. The TGI was greater than 6.29 µM in experiment [7]; greater than 10 µM in [8]; greater than 10 µM in [9]; 2.16 µM in experiment [10]; greater than 10 µM in experiment [11]; greater than 10 µM in experiment [12]. In addition, the TGI in experiment [13], in [14], in experiment [15], in experiment [16] and in [17] was greater than 10 µM each time.
Turning to `COc1cc(Br)cc2nc(-c3cccs3)oc12`, the TGI in experiment [1] was greater than 100 µM; in experiment [2], greater than 92.1 µM; in experiment [3], greater than 100 µM; in experiment [4], greater than 100 µM; in experiment [5], greater than 100 µM; in [6], greater than 85.9 µM. The TGI in experiment [7], in experiment [8], in [9], in [10], in [11] and in [12] was greater than 100 µM in each case. Besides, the TGI in [13] was greater than 100 µM; in [14], greater than 100 µM; in experiment [15], greater than 100 µM; in experiment [16], greater than 100 µM; in experiment [17], greater than 68 µM.
For the compound `Cc1ccc(CC2(OCCN(C)C)CCC(C(C)(C)C)CC2)cc1` (stereo unspecified), the TGI is 14.6 µM and 19 µM in experiment [1]; 11.1 µM and 8.4 µM in experiment [2]; 8.34 µM and 6.33 µM in experiment [3]; 7.65 µM and 4.74 µM in experiment [4]; 6.73 µM and 6.24 µM in experiment [5]; 21.9 µM and 20.3 µM in experiment [6]. In addition, the TGI was 4.11 µM and 4.8 µM in experiment [7]; 3.36 µM and 3.64 µM in experiment [8]; 25.8 µM and 27.2 µM in [9]; 6.24 µM and 5.02 µM in experiment [10]; 15.1 µM and 17.1 µM in experiment [11]; 15.2 µM and 16.6 µM in experiment [12]. Besides, the TGI is 16.1 µM and 24.1 µM in [13]; 3 µM and 3.97 µM in experiment [14]; 14 µM and 13.9 µM in experiment [15]; 19.4 µM and 21.5 µM in [16]; 28.4 µM and 21.2 µM in experiment [17].
Regarding `CCO/C=N/C1=C(C#N)C(c2ccc(Cl)cc2)c2c(-c3ccccc3)nn(-c3ccccc3)c2O1` (stereo unspecified), the TGI in experiment [1] was 31.9 µM; in experiment [2] it was 86.5 µM; in experiment [3], greater than 100 µM; in experiment [4] it was 35.9 µM; in experiment [5] it was greater than 47.9 µM; in experiment [6] it was 29.1 µM. Also, the TGI in [7] is greater than 100 µM; in experiment [8], 30 µM; in experiment [9], greater than 45.2 µM; in experiment [10], greater than 100 µM; in experiment [11], greater than 31.6 µM; in experiment [12] it was greater than 64.8 µM. Moreover, the TGI was greater than 80.8 µM in [13]; 31 µM in [14]; greater than 70.1 µM in experiment [15]; 45.2 µM in experiment [16]; greater than 28.1 µM in experiment [17].

The record behind these values is PubChem BioAssay (NCI).
